Reference: patent publication US8916565B2, “Pyrrolopyrazine-spirocyclic piperidine amides as modulators of ion channels” (priority 2011, dated 2014)

Molecular target: human NaV subtype, like NaV 1.7 (Homo sapiens, UniProt Q15858)
Assay: E-VIPR optical membrane potential assay with electrical stimulation
Type: cell-based
Conditions: active against one or more sodium channels; Table 3 does not name the assay or NaV subtype; read-out: Binned Activity Data (IC50)

Chain of human NaV subtype, like NaV 1.7 (Q15858 whole entry): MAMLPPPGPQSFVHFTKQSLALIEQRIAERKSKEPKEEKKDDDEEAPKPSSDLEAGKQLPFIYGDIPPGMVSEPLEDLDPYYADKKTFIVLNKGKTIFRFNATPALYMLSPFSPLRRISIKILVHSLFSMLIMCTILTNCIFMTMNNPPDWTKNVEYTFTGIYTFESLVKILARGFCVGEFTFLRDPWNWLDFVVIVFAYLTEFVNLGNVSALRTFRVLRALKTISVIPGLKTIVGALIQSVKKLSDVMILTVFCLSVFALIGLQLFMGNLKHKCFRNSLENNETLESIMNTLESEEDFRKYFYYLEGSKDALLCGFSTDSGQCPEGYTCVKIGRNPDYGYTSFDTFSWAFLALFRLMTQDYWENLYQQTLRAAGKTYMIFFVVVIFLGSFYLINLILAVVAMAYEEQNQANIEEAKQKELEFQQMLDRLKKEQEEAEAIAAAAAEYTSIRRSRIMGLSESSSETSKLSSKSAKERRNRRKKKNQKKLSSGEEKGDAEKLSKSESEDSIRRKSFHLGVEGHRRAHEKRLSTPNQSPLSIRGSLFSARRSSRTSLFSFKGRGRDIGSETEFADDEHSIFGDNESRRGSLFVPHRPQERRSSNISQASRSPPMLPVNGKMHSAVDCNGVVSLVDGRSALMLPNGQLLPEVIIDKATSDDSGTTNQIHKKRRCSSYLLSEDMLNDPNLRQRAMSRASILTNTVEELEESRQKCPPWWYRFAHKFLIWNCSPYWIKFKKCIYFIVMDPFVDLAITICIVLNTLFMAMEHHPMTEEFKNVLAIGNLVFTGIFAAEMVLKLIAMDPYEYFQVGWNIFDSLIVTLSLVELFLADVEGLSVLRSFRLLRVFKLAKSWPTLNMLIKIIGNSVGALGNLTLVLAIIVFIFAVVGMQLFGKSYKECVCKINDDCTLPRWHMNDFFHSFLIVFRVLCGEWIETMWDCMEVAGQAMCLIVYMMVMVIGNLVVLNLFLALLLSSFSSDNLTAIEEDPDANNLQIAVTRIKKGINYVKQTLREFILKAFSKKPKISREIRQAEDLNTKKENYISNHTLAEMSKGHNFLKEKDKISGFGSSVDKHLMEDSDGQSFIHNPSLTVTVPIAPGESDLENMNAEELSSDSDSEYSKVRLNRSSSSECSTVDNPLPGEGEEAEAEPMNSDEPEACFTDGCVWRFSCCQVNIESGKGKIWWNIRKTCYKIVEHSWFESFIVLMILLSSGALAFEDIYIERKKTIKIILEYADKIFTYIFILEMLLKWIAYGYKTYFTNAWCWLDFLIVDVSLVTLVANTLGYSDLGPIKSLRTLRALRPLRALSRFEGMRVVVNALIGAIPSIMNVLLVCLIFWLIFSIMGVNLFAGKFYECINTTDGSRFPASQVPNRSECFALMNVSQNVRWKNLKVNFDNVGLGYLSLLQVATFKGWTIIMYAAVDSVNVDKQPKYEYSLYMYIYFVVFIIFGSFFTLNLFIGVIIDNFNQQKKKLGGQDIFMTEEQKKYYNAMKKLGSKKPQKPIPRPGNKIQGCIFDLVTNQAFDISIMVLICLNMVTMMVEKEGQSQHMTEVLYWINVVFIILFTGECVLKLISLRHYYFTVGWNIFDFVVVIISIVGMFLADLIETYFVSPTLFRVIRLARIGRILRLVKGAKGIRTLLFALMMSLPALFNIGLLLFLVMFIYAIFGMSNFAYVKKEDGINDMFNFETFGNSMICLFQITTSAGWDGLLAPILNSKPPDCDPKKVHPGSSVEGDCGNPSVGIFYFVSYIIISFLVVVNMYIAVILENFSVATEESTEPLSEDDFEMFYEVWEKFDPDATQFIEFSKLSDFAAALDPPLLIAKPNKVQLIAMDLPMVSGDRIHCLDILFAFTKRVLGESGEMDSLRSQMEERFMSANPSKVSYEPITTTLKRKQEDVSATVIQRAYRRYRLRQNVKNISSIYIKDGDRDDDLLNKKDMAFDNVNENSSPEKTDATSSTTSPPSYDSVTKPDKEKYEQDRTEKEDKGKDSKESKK

SMILES | IC50 [µM]
CC(=O)c1ccc2n1CCN(C)C21CCN(C(=O)c2ccc(C3CC3)cc2)CC1 [Compound 425] | > 5
COc1cc(C(=O)N2CC[C@@]3(c4ccc(C(F)(F)F)n4CCN3C)[C@@H](C)C2)ccc1OC(C)C [Compound 429] | 2 to 5
Cc1cc(C(=O)N2CCC3(CC2)c2cccn2CCN3C)ccc1OC(C)C [Compound 430] | > 5
CC(C)Oc1ccc(C(=O)N2CCC3(CC2)c2c(F)cc(C(F)(F)F)n2CCN3C)cn1 [Compound 431] | 2 to 5
COc1ccc(C(=O)N2CCC3(CC2)c2ccc(C(=O)C(F)(F)F)n2C[C@@H](C)N3C)cc1C [Compound 432] | 2 to 5
COCCOc1ccc(C(=O)N2CCC3(CC2)c2ccc(C(=O)C(F)(F)F)n2CCN3C)cc1 [Compound 434] | > 5
COc1cc(C(=O)N2CCC3(CC2)NCCn2c(C(F)(F)F)ccc23)ccc1OC(C)(C)C [Compound 435] | 2 to 5
COc1cc(C(=O)N2CCC3(CC2)c2ccc(C(F)(F)F)n2CCN3C)ccc1OCCO [Compound 440] | > 5
CCOc1ccc(C(=O)N2CCC3(CC2)c2ccc(C(=O)C(F)(F)F)n2CCN3C)cc1F [Compound 446] | 2 to 5
CC(=O)c1ccc2n1CCN(C)C21CCN(C(=O)c2ccc(COCC(F)(F)F)cc2)CC1 [Compound 447] | > 5
CC(C)(O)c1ccc(C(=O)N2CCC3(CC2)c2ccc(C(F)(F)F)n2CCN3C2CC2)cc1 [Compound 451] | > 5
O=C(c1cccc2cccnc12)N1CCC2(CC1)NCCn1c(C(F)(F)F)ccc12 [Compound 452] | 2 to 5
CN1CCn2c(C(=O)C(F)(F)F)ccc2C12CCN(C(=O)c1ccc(-c3ccccc3)cn1)CC2 [Compound 453] | 2 to 5
CC(=O)c1cc2n(c1)CC(C)(C)NC21CCN(C(=O)c2ccc(OC(C)C)c(C)c2)CC1 [Compound 454] | > 5
CC(=O)c1ccc2n1CCN(C)C21CCN(C(=O)c2ccc(C(C)(C)O)c(C)c2)CC1 [Compound 456] | 2 to 5
Cc1cc(C(=O)N2CCC3(CC2)c2cccn2CCN3C)ccc1C(C)(C)O [Compound 457] | > 5
COC(=O)C1CN(C)C2(CCN(C(=O)c3ccc(OC(C)C)c(OC)c3)CC2)c2ccc(C(F)(F)F)n21 (stereo not shown) [Compound 458] | 2 to 5
CCNc1ncccc1C(=O)N1CCC2(CC1)c1ccc(C(F)(F)F)n1CCN2C [Compound 465] | > 5
CN1CCn2c(C(F)(F)F)cc(Cl)c2C12CCN(C(=O)c1ccc(C(C)(C)O)cc1)CC2 [Compound 469] | 2 to 5

SMILES | IC50 [µM]
CC(=O)c1ccc2n1CCN(C)C21CCN(C(=O)c2cccc3cccnc23)CC1 [Compound 472] | > 5
CC(=O)c1ccc2n1CCN(C)C21CCN(C(=O)c2ccc(C(C)(C)C)cc2)CC1 [Compound 473] | > 5
CNC(=O)N1CCn2c(C(F)(F)F)ccc2C12CCN(C(=O)c1ccc(OC(C)C)cc1F)CC2 [Compound 474] | 2 to 5
Cc1cc(C(=O)N2CCC3(CC2)c2ccc(C(=O)C(F)(F)F)n2CCN3C)ccc1-c1ccnn1C [Compound 478] | > 5
CCCN(CCC)S(=O)(=O)c1ccc(C(=O)N2CCC3(CC2)c2ccc(Cl)n2CCN3C)cc1 [Compound 479] | 2 to 5
CCS(=O)(=O)c1ccc(C(=O)N2CCC3(CC2)c2ccc(C(=O)C(C)(C)C)n2CCN3C)cc1C [Compound 482] | 2 to 5
COc1ccc(C(=O)N2CCC3(CC2)c2ccc(C(=O)C4CC4)n2CCN3C)cc1Cl [Compound 484] | ≤ 2
COc1ccc(C(=O)N2CCC3(CC2)c2ccc(C(=O)C(F)(F)F)n2C[C@H](C)N3C)nc1C [Compound 485] | ≤ 2
CC(C)CS(=O)(=O)c1ccc(C(=O)N2CCC3(CC2)c2ccc(C(F)(F)F)n2CCN3C)cc1 [Compound 486] | ≤ 2
Cc1cc(C(=O)N2CCC3(CC2)c2ccc(C(=O)C(F)(F)F)n2CCN3C)ccc1C1(O)CCCC1 [Compound 487] | ≤ 2
CC(C)Oc1ccc(C(=O)N2CCC3(CC2)c2ccc(C(F)(F)F)n2CCN3C)cc1 [Compound 488] | ≤ 2
CCn1cnc(-c2ccc(C(=O)N3CCC4(CC3)c3ccc(C(=O)C(F)(F)F)n3CCN4C)cc2C)c1 [Compound 489] | ≤ 2
COc1ccc(C(=O)N2CCC3(CC2)NC(C)(C)Cn2c(C(=O)C(F)(F)F)ccc23)nc1C [Compound 490] | ≤ 2
CC1(C)Cn2c(C(=O)C(F)(F)F)ccc2C2(CCN(C(=O)c3ccc(O)c(Cl)c3)CC2)N1 [Compound 491] | ≤ 2
Cc1cc(C(=O)N2CCC3(CC2)c2ccc(C(F)(F)F)n2CCN3C2CC2)ccc1S(=O)(=O)C(C)C [Compound 492] | ≤ 2
COc1ccc(C(=O)N2CCC3(CC2)c2ccc(C(=O)C4(C)CC4)n2CCN3C)cc1Cl [Compound 493] | ≤ 2
CN1CCn2c(C(=O)C(F)(F)F)ccc2C12CCN(C(=O)c1ccc(OCC(C)(C)C)cc1)CC2 [Compound 494] | ≤ 2
Cc1cc(C(=O)N2CCC3(CC2)N[C@@H](C)Cn2c(C(F)(F)F)ccc23)ccc1OC(C)C [Compound 495] | ≤ 2
CN1CCn2c(C(=O)C(F)(F)F)ccc2C12CCN(C(=O)c1ccc(S(=O)(=O)C3CC3)cc1)CC2 [Compound 496] | 2 to 5

Continued, values first:

IC50 [µM] | SMILES
≤ 2 | Cc1cc(C(=O)N2CCC3(CC2)c2ccc(Cl)n2CCN3C)ccc1-c1ccccc1 [Compound 424]
≤ 2 | CCOC(=O)CN1CCn2c(C(F)(F)F)ccc2C12CCN(C(=O)c1ccc(OC(C)C)c(C)c1)CC2 [Compound 426]
≤ 2 | CC1Cn2c(C(F)(F)F)ccc2C2(CCN(C(=O)c3ccc(OC(C)C)cc3F)CC2)N1 (stereo not shown) [Compound 427]
≤ 2 | CCC(=O)N1CCn2c(C(F)(F)F)ccc2C12CCN(C(=O)c1ccc(OC(C)C)c(OC)c1)CC2 [Compound 428]
≤ 2 | Cc1nc(C(=O)N2CCC3(CC2)NC(C)(C)Cn2c(C(=O)C(F)(F)F)ccc23)ccc1OC(C)C [Compound 433]
≤ 2 | CC(C)Oc1ccc(C(=O)N2CCC3(CC2)c2c(F)cc(C(F)(F)F)n2CCN3C)cc1F [Compound 436]
≤ 2 | Cc1cc(C(=O)N2CCC3(CC2)c2ccc(C(=O)C(F)(F)F)n2C(C)(C)CN3C)ccc1OC(C)C [Compound 437]
≤ 2 | CC(C)CCOc1ccc(C(=O)N2CCC3(CC2)c2ccc(C(=O)C(F)(F)F)n2CCN3C)nc1 [Compound 438]
≤ 2 | CC(C)Oc1ccc(C(=O)N2CCC3(CC2)c2ccc(C(=O)C(F)(F)F)n2C[C@H](C)N3C)cc1F [Compound 439]
≤ 2 | CN1CCn2c(C(F)(F)F)ccc2C12CCN(C(=O)c1ccc(S(=O)(=O)C(C)(C)C)cc1)CC2 [Compound 441]
≤ 2 | CC1(C)Cn2c(C(=O)C(F)(F)F)ccc2C2(CCN(C(=O)c3ccc(S(=O)(=O)NC4CC4)cc3)CC2)N1 [Compound 442]
≤ 2 | COc1cc(C(=O)N2CCC3(CC2)c2ccc(C(F)(F)F)n2CCN3C)ccc1OC(C)C [Compound 443]
≤ 2 | CC(C)CCOc1ccc(C(=O)N2CCC3(CC2)c2ccc(C(=O)C(F)(F)F)n2C(C)CN3C)nc1 (stereo not shown) [Compound 444]
≤ 2 | CC(C)Oc1ccc(C(=O)N2CCC3(CC2)c2ccc(C(=O)C4(C)CC4)n2CCN3C)c(F)c1 [Compound 445]
≤ 2 | COc1ccc(C(=O)N2CCC3(CC2)c2ccc(C(=O)C4(C)CC4)n2CCN3C)nc1C [Compound 448]
≤ 2 | C[C@H]1Cn2c(C(=O)C(F)(F)F)ccc2C2(CCN(C(=O)c3ccc(COCCC(F)(F)F)cc3)CC2)N1C [Compound 449]
≤ 2 | Cc1cc(C(=O)N2CCC3(CC2)c2ccc(C(F)(F)F)n2CCN3C)ccc1S(=O)(=O)NC(C)C [Compound 450]
≤ 2 | COc1ccc(C(=O)N2CCC3(CC2)c2ccc(C(=O)C(F)(F)F)n2CCN3C)cc1OC(C)C [Compound 455]

IC50 [µM] | SMILES
≤ 2 | COc1ccc(C(=O)N2CCC3(CC2)c2ccc(C(=O)C(F)(F)F)n2CCN3C)cc1C(F)(F)F [Compound 459]
≤ 2 | COC(=O)N1CCn2c(C(F)(F)F)ccc2C12CCN(C(=O)c1ccc(OC(C)C)c(C)c1)CC2 [Compound 460]
≤ 2 | CC(C)Oc1ccc(C(=O)N2CCC3(CC2)c2ccc(C(F)(F)C(F)(F)F)n2CCN3C)cc1CO [Compound 461]
≤ 2 | CC(=O)c1ccc2n1CCN(C)C21CCN(C(=O)c2ccc(OCC(C)(C)C)cc2)CC1 [Compound 462]
≤ 2 | C[C@H]1Cn2c(C(=O)C(F)(F)F)ccc2C2(CCN(C(=O)c3ccc(OCC(F)(F)F)cc3)CC2)N1C [Compound 463]
≤ 2 | CN1CCn2c(ccc2C(F)(F)C(F)(F)F)C12CCN(C(=O)c1ccc(S(=O)(=O)C(C)(C)C)cc1)CC2 [Compound 464]
≤ 2 | Cc1cc(C(=O)N2CCC3(CC2)c2c(Cl)cc(C(F)(F)F)n2CCN3C)ccc1C(C)(C)O [Compound 466]
≤ 2 | COc1cc(C(=O)N2CCC3(CC2)NC(C)(C)Cn2c(C(=O)C(F)(F)F)ccc23)ccc1COCC(F)(F)F [Compound 467]
≤ 2 | Cc1nc(C(=O)N2CCC3(CC2)c2ccc(C(=O)C(F)(F)F)n2CCN3C)ccc1OC(C)C [Compound 468]
≤ 2 | COc1cc(C(=O)N2CCC3(CC2)c2ccc(C(C)=O)n2CCN3C)ccc1COCC(F)(F)F [Compound 470]
≤ 2 | Cc1cc(C(=O)N2CCC3(CC2)c2ccc(C(=O)C(F)(F)F)n2CCN3C)ccc1C(F)(F)F [Compound 471]
≤ 2 | Cc1cc(C(=O)N2CC[C@]3(c4ccc(C(F)(F)F)n4CCN3C)[C@H](F)C2)ccc1OC(C)C [Compound 475]
≤ 2 | Cc1cc(C(=O)N2CCC3(CC2)c2ccc(C(=O)C4CC4)n2CCN3C)ccc1O [Compound 476]
≤ 2 | CC(C)Oc1ccc(C(=O)N2CCC3(CC2)NCCn2c(C(F)(F)F)ccc23)cc1F [Compound 477]
≤ 2 | COc1cc(C(=O)N2CCC3(CC2)NC(C)(C)Cn2c(C(=O)C(F)(F)F)ccc23)ccc1COCCC(F)(F)F [Compound 480]
≤ 2 | CCNc1ccnc2c(C(=O)N3CCC4(CC3)c3ccc(C(F)(F)F)n3CCN4C)cnn12 [Compound 481]
≤ 2 | COc1cc(C(=O)N2CCC3(CC2)c2c(F)cc(C(F)(F)F)n2CCN3C)ccc1OC(C)(C)C [Compound 483]
